Assay results: US20070232698A1, “Slimming Skin External Preparation and Cosmetic Containing the Same” (priority 2004, published 2007)
Read-outs that look alike come from different tables or passages of the source.

Assays:
[1] = system: Mouse 3T3 adipocytes; assay: Measurement of fat metabolic activity for mouse 3T3 adipocytes (free glycerol in culture medium); format: cell-based; details: 250 μM test substance, medium recovered after 24 hours; control (none) = 100
Description: The five carnitine and carnitine derivatives 1) to 5) used in Example 1 were tested. The fat metabolic activity was measured and compared by quantitative determination of glycerol in the culture medium based on the fact that metabolism of the fat accumulated in adipocytes releases glycerol and free fatty acid to the culture medium.
Mouse 3T3 cells as the preadipocytes were disseminated on a 10 cm-diameter dish such that 1×10^4 cells were on the dish. […] Thereafter, the culture medium was replaced with a 10% FCS-containing DMEM culture medium that contained […] of dexamethasone, 0.5 mM of isobutylmethylxanthine and 10 μg/ml of insulin, and incubation was continued for another 2 days. Subsequently, the culture medium was replaced again with a 10% FCS-containing ordinary DMEM culture medium, and incubation was performed for another week, resulting in differentiation of the preadipocytes into adipocytes. Next, the culture medium was replaced with an ordinary culture medium that contained 250 μM of the carnitine or carnitine derivative of the five substances 1) to 5) used in Example 1, and the culture medium was recovered after 24 hours. The cells were washed with Dulbecco's PBS (−) and were recovered. Cells incubated in the absence of the test substances were used as the control. The glycerol content in the culture medium was quantitatively determined using Glycerol Test E Wako (Wako Pure Chemical Industries, Ltd.).
The fat metabolic activity for mouse 3T3 adipocytes was determined based on the free glycerol content in the same manner as in Example 2, except that the two carnitine and carnitine derivative 1) and 6) used in Example 4 were tested.
The fat metabolic activity for mouse 3T3 adipocytes was determined based on the free glycerol content in the same manner as in Example 2, except that the three carnitine and carnitine derivatives 1), 7) and 8) used in Example 7 were tested.

[2] = system: skin together with subcutaneous fat tissues; assay: Subcutaneous fat breakdown test (rat abdominal skin with subcutaneous fat in Franz diffusion cell); details: lower cell PBS (−), 37° C., average of three measurements, control (none) 20
Description: A male Wister rat, 10 weeks old, was shaved on the abdomen, and the skin was removed together with subcutaneous fat tissues and was placed in a Franz diffusion cell. An upper cell on the skin surface was filled with a buffer solution containing the Example 1 test substance, and a lower cell was filled with Dulbecco's PBS (−). The diffusion cell was held at 37° C. and was allowed to stand for 8 or 16 hours. After the lapse of each of the standing times, PBS (−) was withdrawn from the lower cell. The content of free glycerol resulting from the fat breakdown was measured with use of Glycerol Test E Wako. The results are averages of three measurements.
The free glycerol contents were measured in the same manner as in Example 3, except that the two carnitine and carnitine derivative 1) and 6) used in Example 4 were tested. The results are averages of three measurements.
The free glycerol contents were measured in the same manner as in Example 3, except that the three carnitine and carnitine derivatives 1), 7) and 8) used in Example 7 were tested. The results are averages of three measurements.

[3] = system: human skin tissue three dimensional model (TESTSKIN LSD-d); assay: Comparison of percutaneous absorption properties: carnitine content in skin model; details: 1% by mass solution, 50 μL on tissue surface for 2 hours; for carnitine content in the skin model, After 2-hour incubation: then 2-hour incubation at 37° C.; for carnitine content in the skin model, After 6-hour incubation: then 6-hour incubation at 37° C.; for carnitine content in the skin model, After 12-hour incubation: then 12-hour incubation at 37° C.
Description: (§1) The test substances were each dissolved in Dulbecco's PBS (−) to give a 1% by mass solution of the test substance. The test substance solutions were placed, each 50 μL, to a tissue surface of human skin tissue three dimensional model (TESTSKIN™ LSD-d, available from TOYOBO CO., LTD.), and were incubated at 37° C. in a 5% CO2 atmosphere for 2 hours. Thereafter the test substance solutions were aspirated out, and the skin models were further incubated at 37° C. in a 5% CO2 atmosphere for 2, 6 or 12 hours. The skin models were sampled after the lapse of each of the incubation times. The skin models sampled at the incubation times were washed with Dulbecco's PBS (−), and the tissue surfaces on which the test substances had been placed were punched out with a punch 6 mm in diameter. The skin models were then homogenated in a HEPES buffer solution (pH: 7.2), and were quantitatively analyzed using a high performance liquid chromatography to determine the carnitine content in the skin model.
(§2) From the analysis results, the carnitine contents in the skin models (unit: nmol/mg skin protein) were obtained for the test substances at each of the incubation times.

[4] = system: human skin tissue three dimensional model (TESTSKIN LSD-d)
Description: as §1, §2

C[N+](C)(C)C[C@H](O)CC(=O)[O-] [Test substance 1), L-Carnitine, reference compound]
Free glycerol content (% relative to the control) [1]: 120 % relative to the control | Free glycerol, After 8 hours [2]: 120 µmol/mL | Free glycerol, After 16 hours [2]: 125 µmol/mL | carnitine content in the skin model, After 2-hour incubation [3]: 12 nmol/mg skin protein | carnitine content in the skin model, After 6-hour incubation [3]: 12 nmol/mg skin protein | carnitine content in the skin model, After 12-hour incubation [3]: 11 nmol/mg skin protein

CCCCCC(=O)O[C@H](CC(=O)O)C[N+](C)(C)C.[Cl-] [Test substance 2), Hexanoyl-L-carnitine hydrochloride]
Free glycerol content (% relative to the control) [1]: 155 % relative to the control | Free glycerol, After 8 hours [2]: 116 µmol/mL | Free glycerol, After 16 hours [2]: 138 µmol/mL | carnitine content in the skin model, After 2-hour incubation [4]: 7 nmol/mg skin protein | carnitine content in the skin model, After 6-hour incubation [4]: 14 nmol/mg skin protein | carnitine content in the skin model, After 12-hour incubation [4]: 21 nmol/mg skin protein

CCCCCCCCCCCCCC(=O)O[C@H](CC(=O)O)C[N+](C)(C)C.[Cl-] [Test substance 3), Tetradecanoyl-L-carnitine hydrochloride]
Free glycerol content (% relative to the control) [1]: 168 % relative to the control | Free glycerol, After 8 hours [2]: 112 µmol/mL | Free glycerol, After 16 hours [2]: 146 µmol/mL | carnitine content in the skin model, After 2-hour incubation [4]: 6 nmol/mg skin protein | carnitine content in the skin model, After 6-hour incubation [4]: 12 nmol/mg skin protein | carnitine content in the skin model, After 12-hour incubation [4]: 22 nmol/mg skin protein

CCCCCCCCCCCCCCCC(=O)O[C@H](CC(=O)O)C[N+](C)(C)C.[Cl-] [Test substance 4), Hexadecanoyl-L-carnitine hydrochloride]
Free glycerol content (% relative to the control) [1]: 180 % relative to the control | Free glycerol, After 8 hours [2]: 125 µmol/mL | Free glycerol, After 16 hours [2]: 170 µmol/mL | carnitine content in the skin model, After 2-hour incubation [4]: 6 nmol/mg skin protein | carnitine content in the skin model, After 6-hour incubation [4]: 10 nmol/mg skin protein | carnitine content in the skin model, After 12-hour incubation [4]: 23 nmol/mg skin protein

CCCCCCCCCCCCCCCCCC(=O)O[C@H](CC(=O)O)C[N+](C)(C)C.[Cl-] [Test substance 5), Octadecanoyl-L-carnitine hydrochloride]
Free glycerol content (% relative to the control) [1]: 176 % relative to the control | Free glycerol, After 8 hours [2]: 117 µmol/mL | Free glycerol, After 16 hours [2]: 158 µmol/mL | carnitine content in the skin model, After 2-hour incubation [4]: 5 nmol/mg skin protein | carnitine content in the skin model, After 6-hour incubation [4]: 10 nmol/mg skin protein | carnitine content in the skin model, After 12-hour incubation [4]: 25 nmol/mg skin protein

CCCCCCCCCCCCCCCCOC(=O)C[C@@H](O)C[N+](C)(C)C.[Cl-] [Test substance 6), L-Carnitine hexadecyl ester hydrochloride]
Free glycerol content (% relative to the control) [1]: 165 % relative to the control | Free glycerol, After 8 hours [2]: 110 µmol/mL | Free glycerol, After 16 hours [2]: 116 µmol/mL | carnitine content in the skin model, After 2-hour incubation [3]: 5 nmol/mg skin protein | carnitine content in the skin model, After 6-hour incubation [3]: 11 nmol/mg skin protein | carnitine content in the skin model, After 12-hour incubation [3]: 26 nmol/mg skin protein

CCCCCCCCCCCCCCCC(=O)O[C@H](CC(=O)OC)C[N+](C)(C)C.[Cl-] [Test substance 7), Hexadecanoyl-L-carnitine methyl ester hydrochloride]
Free glycerol content (% relative to the control) [1]: 143 % relative to the control | Free glycerol, After 8 hours [2]: 68 µmol/mL | Free glycerol, After 16 hours [2]: 145 µmol/mL | carnitine content in the skin model, After 2-hour incubation [3]: 2 nmol/mg skin protein | carnitine content in the skin model, After 6-hour incubation [3]: 9 nmol/mg skin protein | carnitine content in the skin model, After 12-hour incubation [3]: 19 nmol/mg skin protein

CCCCCCCCCCCCCCCCOC(=O)C[C@H](C[N+](C)(C)C)OC(=O)CCCCCCCCCCCCCCC.[Cl-] [Test substance 8), Hexadecanoyl-L-carnitine hexadecyl ester hydrochloride]
Free glycerol content (% relative to the control) [1]: 148 % relative to the control | Free glycerol, After 8 hours [2]: 75 µmol/mL | Free glycerol, After 16 hours [2]: 150 µmol/mL | carnitine content in the skin model, After 2-hour incubation [3]: 2 nmol/mg skin protein | carnitine content in the skin model, After 6-hour incubation [3]: 8 nmol/mg skin protein | carnitine content in the skin model, After 12-hour incubation [3]: 21 nmol/mg skin protein
